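In this assay, cells in 96-well plates receive the compound at five concentrations for 48 hours. Endpoints are linearly interpolated between the surrounding concentrations. GI50 is the concentration that inhibits growth by half.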 The source made the active and inactive calls. Rule as the data show it: active = GI50 up to about 1.1 µM and inactive = higher.
How the values were obtained:
Test in all cases: inhibition of tumour cell growth, NCI panel, 48 h
CCRF-CEM = tested on: CCRF-CEM
SF-268 = tested on: SF-268
SK-MEL-5 = tested on: SK-MEL-5
SF-539 = tested on: SF-539
HCT-116 = tested on: HCT-116
RXF 393 = tested on: RXF 393
NCI-H522 = tested on: NCI-H522
Malme-3M = tested on: Malme-3M
TK-10 = tested on: TK-10
SNB-75 = tested on: SNB-75
IGROV-1 = tested on: IGROV-1
NCI-H23 = tested on: NCI-H23
KM12 = tested on: KM12
SK-OV-3 = tested on: SK-OV-3
HCT-15 = tested on: HCT-15
HOP-92 = tested on: HOP-92

| SMILES | GI50 (CCRF-CEM) | GI50 (SF-268) | GI50 (SK-MEL-5) | GI50 (SF-539) | GI50 (HCT-116) | GI50 (RXF 393) | GI50 (NCI-H522) | GI50 (Malme-3M) | GI50 (TK-10) | GI50 (SNB-75) | GI50 (IGROV-1) | GI50 (NCI-H23) | GI50 (KM12) | GI50 (SK-OV-3) | GI50 (HCT-15) | GI50 (HOP-92) |
| --- | --- | --- | --- | --- | --- | --- | --- | --- | --- | --- | --- | --- | --- | --- | --- | --- |
| CCOC(=O)/N=C(\N)SCc1ccccc1 | 24.7 µM (inactive) | > 100 µM (inactive) | > 100 µM (inactive) | > 100 µM (inactive) | > 100 µM (inactive) | > 100 µM (inactive) | > 100 µM (inactive) | > 100 µM (inactive) | > 100 µM (inactive) | > 100 µM (inactive) | > 100 µM (inactive) | > 100 µM (inactive) | > 100 µM (inactive) | > 100 µM (inactive) | > 100 µM | > 100 µM (inactive) |
| NC(=O)N1N=C2c3ccccc3CC[C@@H]2C1c1ccccc1 (stereo partly drawn) | > 100 µM (inactive) | > 100 µM (inactive) | 88.7 µM (inactive) | > 100 µM (inactive) | > 100 µM (inactive) | > 100 µM (inactive) | 61 µM (inactive) | > 100 µM (inactive) | > 100 µM (inactive) | 36.6 µM (inactive) | > 100 µM (inactive) | > 100 µM (inactive) | > 100 µM (inactive) | > 100 µM (inactive) | > 100 µM |  |
| CN(C)C(=O)OC(Cn1cncn1)c1ccc(Cl)cc1Cl (stereo not drawn) |  | > 100 µM (inactive) | > 100 µM (inactive) | > 100 µM (inactive) | > 100 µM (inactive) | > 100 µM (inactive) | 53.5 µM (inactive) | > 100 µM (inactive) | > 100 µM (inactive) | > 100 µM (inactive) | > 100 µM (inactive) | > 100 µM (inactive) | > 100 µM (inactive) | > 100 µM (inactive) | > 100 µM | > 100 µM (inactive) |
| Cc1nn(-c2nc3ccccc3s2)c2c1C(=O)c1ccccc1-2 |  | > 100 µM (inactive) | > 100 µM (inactive) | > 100 µM (inactive) | > 100 µM (inactive) | 62.5 µM (inactive) | > 100 µM (inactive) | > 100 µM (inactive) | > 100 µM (inactive) | > 100 µM (inactive) | > 100 µM (inactive) | > 100 µM (inactive) | > 100 µM (inactive) | > 100 µM (inactive) | > 100 µM | 89.3 µM (inactive) |
| CC(=O)OC1COC(N2C(=O)C(=O)c3c(C)cc(Cl)nc32)C(OC(C)=O)C1OC(C)=O (stereo not drawn) | > 100 µM (inactive) | > 100 µM (inactive) | > 100 µM (inactive) | > 100 µM (inactive) | > 100 µM (inactive) | > 100 µM (inactive) |  | > 100 µM (inactive) | > 100 µM (inactive) | > 100 µM (inactive) | > 100 µM (inactive) | > 100 µM (inactive) | > 100 µM (inactive) |  | > 100 µM | > 100 µM (inactive) |
| COC1(C)CC2N(C(=O)c3ccccc3)N=C(c3ccccc3)CC2(C)O1 (stereo not drawn) | 84.5 µM (inactive) | > 100 µM (inactive) | > 100 µM (inactive) | > 100 µM (inactive) | > 100 µM (inactive) |  | > 100 µM (inactive) | > 100 µM (inactive) |  | > 100 µM (inactive) | > 100 µM (inactive) |  | > 100 µM (inactive) | > 100 µM (inactive) | > 100 µM | > 100 µM (inactive) |
| O=S(=O)(c1ccccc1)C1CN2OC1(S(=O)(=O)c1ccccc1)CC2c1ccc(Br)cc1 (stereo not drawn) | > 100 µM (inactive) | 14.9 µM (inactive) | 90.6 µM (inactive) | 17.7 µM (inactive) | > 100 µM (inactive) | 13.2 µM (inactive) | 34 µM (inactive) | > 100 µM (inactive) | 59 µM (inactive) | 5.21 µM (inactive) | > 100 µM (inactive) | > 100 µM (inactive) | > 100 µM (inactive) | > 100 µM (inactive) | > 100 µM | 66.2 µM (inactive) |
| CCCCNC(=NC#N)NCCCC |  | > 100 µM (inactive) | > 100 µM (inactive) | > 100 µM (inactive) | > 100 µM (inactive) | 34.5 µM (inactive) | > 100 µM (inactive) | > 100 µM (inactive) | > 100 µM (inactive) | > 100 µM (inactive) | > 100 µM (inactive) | > 100 µM (inactive) | > 100 µM (inactive) | > 100 µM (inactive) | 62.4 µM | > 100 µM (inactive) |
| N#CCCN(c1ccc(/C=N/c2ccccc2)cc1)S(=O)(=O)c1ccccc1 | > 100 µM (inactive) | > 100 µM (inactive) | > 100 µM (inactive) | > 100 µM (inactive) | > 100 µM (inactive) |  | > 100 µM (inactive) | 41.4 µM (inactive) | > 100 µM (inactive) | > 100 µM (inactive) | > 100 µM (inactive) | > 100 µM (inactive) | 16.5 µM (inactive) | > 100 µM (inactive) |  | > 100 µM (inactive) |
| CCCCCCCCCCCOC(=S)NC(C)C | 23.5 µM (inactive) | 21.2 µM (inactive) | 17 µM (inactive) | 18.3 µM (inactive) | 17.5 µM (inactive) | 19.8 µM (inactive) | 18.2 µM (inactive) | 21.8 µM (inactive) | 28.2 µM (inactive) | 23.1 µM (inactive) | 20.6 µM (inactive) | 19.3 µM (inactive) | 19.7 µM (inactive) | 19.3 µM (inactive) | 17.5 µM | 14.1 µM (inactive) |
| COc1ccc(/C=C2\CN(C)Cc3c2nc(N)nc3-c2ccc(OC)cc2)cc1 | 41.5 µM (inactive) | > 100 µM (inactive) | 26.9 µM (inactive) | > 100 µM (inactive) | > 100 µM (inactive) | > 100 µM (inactive) | 41.3 µM (inactive) | 34.4 µM (inactive) | > 100 µM (inactive) | > 100 µM (inactive) | > 100 µM (inactive) | > 100 µM (inactive) | 61.2 µM (inactive) | > 100 µM (inactive) |  |  |
| C/C(=N\NS(=O)(=O)c1ccc([N+](=O)[O-])cc1)c1ccc[n+]([O-])n1 | 3.05 µM (inactive) | 2.33 µM (inactive) | 2.35 µM (inactive) | 2.08 µM (inactive) | 1.72 µM (inactive) | 1.34 µM (inactive) | 1.95 µM (inactive) | 3.09 µM (inactive) | 11.6 µM (inactive) | 1.95 µM (inactive) | 3.79 µM (inactive) | 1.7 µM (inactive) | 2.39 µM (inactive) | 2.64 µM (inactive) | 5.16 µM | 2.94 µM (inactive) |
| CCCC1(CC(=O)O)OCCc2c1[nH]c1ccccc21 (stereo not drawn) [PRODOLIC ACID] | > 100 µM (inactive) | > 100 µM (inactive) | > 100 µM (inactive) | > 100 µM (inactive) |  | > 100 µM (inactive) |  | > 100 µM (inactive) | > 100 µM (inactive) | 69.3 µM (inactive) | > 100 µM (inactive) | > 100 µM (inactive) | > 100 µM (inactive) | > 100 µM (inactive) | > 100 µM | > 100 µM (inactive) |
| CCCCCCCCCCCCCC(=S)N/C=C/OC | 21.4 µM (inactive) | 43 µM (inactive) | 25 µM (inactive) | 66.5 µM (inactive) | 30.5 µM (inactive) | 26.9 µM (inactive) | 20.3 µM (inactive) | 26.6 µM (inactive) | > 100 µM (inactive) | 33.7 µM (inactive) | 41.3 µM (inactive) | 28.2 µM (inactive) | 28.2 µM (inactive) | > 100 µM (inactive) | 22.9 µM | 25.8 µM (inactive) |
| COc1ccc(C2Oc3ccc(O)cc3[C@@H]2C)cc1OC (stereo partly drawn) | 17.5 µM (inactive) | > 100 µM (inactive) | 48.5 µM (inactive) | > 100 µM (inactive) | > 100 µM (inactive) | 58.5 µM (inactive) | 27.5 µM (inactive) | > 100 µM (inactive) | > 100 µM (inactive) | 30.2 µM (inactive) | > 100 µM (inactive) | 94.6 µM (inactive) | > 100 µM (inactive) | > 100 µM (inactive) | 52.6 µM | 23 µM (inactive) |
| COC1OC(C)C(OC(=O)C(C)(C)C)C(OS(=O)(=O)c2ccc(C)cc2)C1OS(=O)(=O)c1ccc(C)cc1 (stereo not drawn) | > 100 µM (inactive) | > 100 µM (inactive) | > 100 µM (inactive) | > 100 µM (inactive) | > 100 µM (inactive) | > 100 µM (inactive) | > 100 µM (inactive) | > 100 µM (inactive) |  | 77.8 µM (inactive) | > 100 µM (inactive) | > 100 µM (inactive) | > 100 µM (inactive) | > 100 µM (inactive) | > 100 µM |  |
| O=C(/C=N/c1ccccc1[S-])c1ccco1.O=C(/C=N/c1ccccc1[S-])c1ccco1.[Zn+2] | 2.95 µM (inactive) | 17.9 µM (inactive) | 16.9 µM (inactive) | 13.3 µM (inactive) | 4.06 µM (inactive) |  | 10 µM (inactive) | 10 µM (inactive) | 16.7 µM (inactive) | 8.28 µM (inactive) | 5.14 µM (inactive) | 5.41 µM (inactive) | 12.8 µM (inactive) | 27.9 µM (inactive) | 8.59 µM | 11.5 µM (inactive) |
| CC(C)/C=C1\CCC(CN2CCOCC2)C1=O (stereo not drawn) | 2.65 µM (inactive) | 22.9 µM (inactive) | 18.6 µM (inactive) | 15.5 µM (inactive) | 5.35 µM (inactive) | 4.94 µM (inactive) | 2.01 µM (inactive) | 15.7 µM (inactive) | 12.9 µM (inactive) |  | 14.4 µM (inactive) | 17.4 µM (inactive) | 10.5 µM (inactive) | > 100 µM (inactive) | 5.85 µM | 18.4 µM (inactive) |
| COc1cccc(C2=NC(C(C)C)CO2)c1 (stereo not drawn) | > 100 µM (inactive) | > 100 µM (inactive) | > 100 µM (inactive) | > 100 µM (inactive) |  | > 100 µM (inactive) | > 100 µM (inactive) | > 100 µM (inactive) | > 100 µM (inactive) | > 100 µM (inactive) | > 100 µM (inactive) | > 100 µM (inactive) | > 100 µM (inactive) | > 100 µM (inactive) | > 100 µM |  |
